Laboratory results as given in US20150105252A1, “SUBSTITUTED PYRAZOLES AS HERBICIDES” (E I DU PONT DE NEMOURS AND COMPANY, priority 2013, published 2015).

Legend:
[1] = system: bluegrass; assay: Test D preemergence; type: in vivo, Poa annua; conditions: Preemergence, scale 0 to 100
Outline: (§1)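 Visual 0–100 control ratings at 14–21 days in a controlled growth environment. Application preemergence onto silt loam or postemergence onto 2–18 cm seedlings, using a non-phytotoxic solvent formulation with surfactant.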

[2] = system: ryegrass, Italian; assay: Test D preemergence; type: in vivo, Lolium multiflorum; conditions: Preemergence, scale 0 to 100
Text: (§2) Seeds of plant species selected from bluegrass (annual bluegrass, Poa annua), blackgrass (Alopecurus myosuroides), canarygrass (littleseed canarygrass, Phalaris minor), chickweed (common chickweed, Stellaria media), galium (catchweed bedstraw, Galium aparine), bromegrass, downy (downy bromegrass, Bromus tectorum), field poppy (Papaver rhoeas), field violet (Viola arvensis), foxtail, green (green foxtail, Setaria viridis), deadnettle (henbit deadnettle, Lamium amplexicaule), ryegrass, Italian (Italian ryegrass, Lolium multiflorum), kochia (Kochia scoparia), lambsquarters (Chenopodium album), oilseed rape (Brassica napus), pigweed (redroot pigweed, Amaranthus retroflexus), chamomile (scentless chamomile, Matricaria inodora), speedwell (bird's-eye speedwell, Veronica persica), barley, spring (spring barley, Hordeum vulgare), wheat, spring (spring wheat, Triticum aestivum), buckwheat, wild (wild buckwheat, Polygonum convolvulus), mustard, wild (wild mustard, Sinapis arvensis), oat, wild (wild oat, Avena fatua), radish, wild (wild radish, Raphanus raphanistrum), windgrass (Apera spica-venti), Russian thistle (Salsola kali), barley, winter (winter barley, Hordeum vulgare), and wheat, winter (winter wheat, Triticum aestivum) were planted into a silt loam soil and treated preemergence with test chemicals formulated in a non-phytotoxic solvent mixture which included a surfactant.
(§3) At the same time, these species were planted in pots containing Redi-Earth® planting medium (Scotts Company, 14111 Scottslawn Road, Marysville, Ohio 43041) comprising spaghnum peat moss, vermiculite, wetting agent and starter nutrients and treated with postemergence applications of the test chemicals formulated in the same manner. Plants ranged in height from 2 to 18 cm (1- to 4-leaf stage). Treated plants and controls were maintained in a controlled growth environment for 14 to 21 days after which time all species were compared to controls and visually evaluated. Plant response ratings, summarized in Table D, are based on a scale of 0 to 100 where 0 is no effect and 100 is complete control. A dash (-) response means no test result.

[3] = system: pigweed; assay: Test D preemergence; type: in vivo, Amaranthus retroflexus; conditions: Preemergence, scale 0 to 100
Text: as §2, §3

[4] = system: radish, wild; assay: Test D preemergence; type: in vivo, Raphanus raphanistrum; conditions: Preemergence, scale 0 to 100
Text: as §2, §3

[5] = system: chickweed; assay: Test D postemergence; type: in vivo, Stellaria media; conditions: scale 0 to 100
Text: as §2, §3

[6] = system: deadnettle; assay: Test D postemergence; type: in vivo, Lamium amplexicaule; conditions: scale 0 to 100
Outline: as §1

[7] = system: ryegrass, Italian; assay: Test D postemergence; type: in vivo, Lolium multiflorum; conditions: scale 0 to 100
Text: as §2, §3

[8] = system: wheat, spring; assay: Test D postemergence; type: in vivo, Triticum aestivum; conditions: scale 0 to 100
Outline: as §1

[9] = system: wheat, winter; assay: Test D postemergence; type: in vivo, Triticum aestivum; conditions: scale 0 to 100
Outline: as §1

SMILES | Plant response rating, Bluegrass ([1]; 31 g ai/ha) | Plant response rating, Bluegrass ([1]; 62 g ai/ha) | Plant response rating, Bluegrass ([1]; 125 g ai/ha) | Plant response rating, Bluegrass ([1]; 250 g ai/ha) | Plant response rating, Ryegrass, Italian ([2]; 62 g ai/ha) | Plant response rating, Ryegrass, Italian ([2]; 125 g ai/ha) | Plant response rating, Ryegrass, Italian ([2]; 250 g ai/ha) | Plant response rating, Pigweed ([3]; 62 g ai/ha) | Plant response rating, Pigweed ([3]; 125 g ai/ha) | Plant response rating, Pigweed ([3]; 250 g ai/ha) | Plant response rating, Radish, Wild ([4]; 62 g ai/ha) | Plant response rating, Radish, Wild ([4]; 125 g ai/ha) | Plant response rating, Radish, Wild ([4]; 250 g ai/ha) | Chickweed plant response rating ([5]; Postemergence, 31 g ai/ha) | Chickweed plant response rating ([5]; Postemergence, 125 g ai/ha) | Chickweed plant response rating ([5]; Postemergence, 250 g ai/ha) | Chickweed plant response rating ([5]; postemergence, 62 g ai/ha) | Deadnettle plant response rating ([6]; Postemergence, 31 g ai/ha) | Deadnettle plant response rating ([6]; Postemergence, 125 g ai/ha) | Deadnettle plant response rating ([6]; Postemergence, 250 g ai/ha) | other results
CCCc1cc(C(=O)NC(C)C)nn1Cc1cc(C(F)(F)F)nn1C [Compound 201] | 20 | 50 | 80 | 95 | 65 | 85 | 100 | 80 | 100 | 100 | 100 | 100 | 100 | 55 | 70 | 75 | 55 | 55 | 60 | 65 | Deadnettle plant response rating ([6]; postemergence, 62 g ai/ha): 55; Ryegrass, Italian plant response rating ([7]; Postemergence, 31 g ai/ha): 15; Ryegrass, Italian plant response rating ([7]; Postemergence, 125 g ai/ha): 20; Ryegrass, Italian plant response rating ([7]; Postemergence, 250 g ai/ha): 50; Ryegrass, Italian plant response rating ([7]; postemergence, 62 g ai/ha): 15; Wheat, Spring plant response rating ([8]; Postemergence, 31 g ai/ha): 15; Wheat, Spring plant response rating ([8]; Postemergence, 125 g ai/ha): 15; Wheat, Spring plant response rating ([8]; Postemergence, 250 g ai/ha): 30; Wheat, Spring plant response rating ([8]; postemergence, 62 g ai/ha): 15; Wheat, Winter plant response rating ([9]; Postemergence, 31 g ai/ha): 20; Wheat, Winter plant response rating ([9]; Postemergence, 125 g ai/ha): 25; Wheat, Winter plant response rating ([9]; Postemergence, 250 g ai/ha): 40; Wheat, Winter plant response rating ([9]; postemergence, 62 g ai/ha): 20
CCc1cc(C(=O)NCC(F)(F)F)nn1Cc1ccnc(SC(F)(F)F)c1 [Compound 214] | 40 | 65 | 85 | 100 | 55 | 70 | 90 | 100 | 100 | 100 | 100 | 100 | 100 | 65 | 70 | 70 | 65 | 50 | 60 | 70 | Deadnettle plant response rating ([6]; postemergence, 62 g ai/ha): 50; Ryegrass, Italian plant response rating ([7]; Postemergence, 31 g ai/ha): 10; Ryegrass, Italian plant response rating ([7]; Postemergence, 125 g ai/ha): 20; Ryegrass, Italian plant response rating ([7]; Postemergence, 250 g ai/ha): 45; Ryegrass, Italian plant response rating ([7]; postemergence, 62 g ai/ha): 10; Wheat, Spring plant response rating ([8]; Postemergence, 31 g ai/ha): 15; Wheat, Spring plant response rating ([8]; Postemergence, 125 g ai/ha): 15; Wheat, Spring plant response rating ([8]; Postemergence, 250 g ai/ha): 20; Wheat, Spring plant response rating ([8]; postemergence, 62 g ai/ha): 15; Wheat, Winter plant response rating ([9]; Postemergence, 31 g ai/ha): 15; Wheat, Winter plant response rating ([9]; Postemergence, 125 g ai/ha): 20; Wheat, Winter plant response rating ([9]; Postemergence, 250 g ai/ha): 40; Wheat, Winter plant response rating ([9]; postemergence, 62 g ai/ha): 15
